From article PMC4666608, “Metabolic Profiling of Chicken Embryos Exposed to Perfluorooctanoic Acid (PFOA) and Agonists to Peroxisome Proliferator-Activated Receptors” (PLoS ONE, 2015)
Marks after values point to notes of the source that are not given here.

Test system: chicken embryos
Assay: Metabolic profiling of blood plasma (GC-MS, LC-MS, OPLS-DA)
Type: in vivo, Gallus gallus domesticus
Conditions: for Mean concentration relative to control, feature Win006_C03 / Mean concentration relative to control, feature Win011_C02 (Isoleucine) / Mean concentration relative to control, feature Win027_C13 / Mean concentration relative to control, feature Win031_C03 (Citric acid) / Mean concentration relative to control, feature Win034_C08 (Tyrosine) / Mean concentration relative to control, feature Win034_C09 (Tyrosine) / Mean concentration relative to control, feature Win039_C07 / Mean concentration relative to control, feature Win043_C02 (Cystathionine) / Mean concentration relative to control, feature Win061_C01 / Mean concentration relative to control, feature Win066_C03 / Mean concentration relative to control, feature Win088_C02: GC
Method: Controls were injected with 20 μL vehicle only (DMSO).
Plasma was collected and stored at -70°C.
Metabolites in allantoic fluid and blood plasma were analyzed using gas chromatography-mass spectrometry (GC-MS) and liquid chromatography-mass spectrometry (LC-MS) as described in S1 Methods. Prior to GC-MS and LC-MS analysis, allantoic fluid (100 μL) and blood plasma (50 μL) were extracted. To each sample, 900 μL (allantoic fluid) or 450 μL (blood plasma) of extraction buffer (90/10 v/v methanol:water) including all internal standards were added. Standards for GC-MS were proline, succinic acid, glutamic acid, salicylic acid, alpha-ketoglutarate, putrescine, myristic acid, hexadecanoic acid, cholesterol, and sucrose. Standards for LC-MS were Val-Tyr-Val, Leu-enkephalin, sulfadimethoxine and reserpine. Samples were homogenized by shaking in a bead mill at a frequency of 30 Hz for 3 minutes and proteins were precipitated at +4°C on ice. The samples were centrifuged at +4°C, 14000 rpm, for 10 min. Then, 200 μL supernatant was transferred to a GC microvial and 200 μL was transferred to an LC microvial, and solvents were evaporated. Samples from the four replicate experiments were analyzed using in chronological order and within each replicate experiment the run order of the individual samples was randomized.
Multivariate statistical analyses of metabolite profiles were performed using the software package SIMCA-P version 13.0 (Umetrics, Umeå, Sweden). Data was centered and scaled to variance 1 (UV scaling) prior to modelling. To reduce unintended systematic variation caused by sample processing and instrument drift, GC-MS and LC-MS metabolite amounts (expressed as the area under the chromatographic peak) were normalized by Orthogonal Partial Least Squares analysis (O2PLS) prior to multivariate data analysis. O2PLS finds common (predictive) and unique (orthogonal) variation in two data matrices. If applied to find the common variation between the data matrix containing the measured metabolite concentrations and a matrix containing only the internal standards, the only common (predictive) variation expected is due to the unintended systematic variation. By deleting the contribution of the predictive latent variables, that variation can be removed from the data. Models obtained after this normalization contain in general less latent variables, and this simplification helps when deciding on the number of latent variables to be used. Following normalization, GC-MS and LC-MS data were analyzed together. Initially, a global Principal Component Analysis (PCA) was performed to get an overview of groups and trends and to identify outliers. Projections to latent structures by means of Orthogonal Partial Least Squares Discriminant Analysis (OPLS-DA) was used to model the relationship between the X-matrix (metabolite concentrations) and the Y matrix (class, i.e. exposure group or sex), and to find x-variables that were related to class belonging. OPLS-DA is a supervised prediction and regression method that rotates the projection plane to find the maximum covariance between the data and the class assignment. All groups were first analyzed together in a 5-class OPLS-DA and then each exposure group was analyzed against the control group in a 2-class OPLS-DA. Sex differences were analyzed both using the whole data set and in each group separately using 2-class OPLS-DA, with females and males as the two classes. Only variables with 80% or more nonzero values were included in the statistical models. […] The validity of each model was also checked using CV-ANOVA (ANOVA of the cross-validated residuals). A significance level of p < 0.05 was used. For each model, R ^2 X, R ^2 Y and Q ^2 values were calculated, where R ^2 X is a measure of the fraction of x variation modeled in the extracted latent variables, R ^2 Y is a measure of the fraction of y variation modeled and Q ^2 is an estimate of the predictive ability of the model and is calculated by cross-validation. […]

O=C(O)C(F)(F)C(F)(F)C(F)(F)C(F)(F)C(F)(F)C(F)(F)C(F)(F)F [PFOA, perfluorooctanoic acid]
Mean concentration relative to control, feature Win006_C03 (PFOA 50): 1.1*
Mean concentration relative to control, feature Win011_C02 (Isoleucine) (PFOA 50): 1.1
Mean concentration relative to control, feature Win027_C13 (PFOA 50): 0.9
Mean concentration relative to control, feature Win031_C03 (Citric acid) (PFOA 50): 1
Mean concentration relative to control, feature Win034_C08 (Tyrosine) (PFOA 50): 1.1
Mean concentration relative to control, feature Win034_C09 (Tyrosine) (PFOA 50): 1.1
Mean concentration relative to control, feature Win039_C07 (PFOA 50): 1.3
Mean concentration relative to control, feature Win043_C02 (Cystathionine) (PFOA 50): 1.1
Mean concentration relative to control, feature Win061_C01 (PFOA 50): 0.9
Mean concentration relative to control, feature Win066_C03 (PFOA 50): 1
Mean concentration relative to control, feature Win088_C02 (PFOA 50): 1
Mean concentration relative to control, feature Win006_C03 (PFOA 250): 1.1*
Mean concentration relative to control, feature Win011_C02 (Isoleucine) (PFOA 250): 1.1*
Mean concentration relative to control, feature Win027_C13 (PFOA 250): 0.8*
Mean concentration relative to control, feature Win031_C03 (Citric acid) (PFOA 250): 1
Mean concentration relative to control, feature Win034_C08 (Tyrosine) (PFOA 250): 1
Mean concentration relative to control, feature Win034_C09 (Tyrosine) (PFOA 250): 1.0
Mean concentration relative to control, feature Win039_C07 (PFOA 250): 1.3
Mean concentration relative to control, feature Win043_C02 (Cystathionine) (PFOA 250): 1.1
Mean concentration relative to control, feature Win061_C01 (PFOA 250): 0.9
Mean concentration relative to control, feature Win066_C03 (PFOA 250): 1
Mean concentration relative to control, feature Win088_C02 (PFOA 250): 1
Mean concentration relative to control, feature 118.0284@2.480333 (C4H6O4) (LC, PFOA 50): 1
Mean concentration relative to control, feature 122.0486@0.675613 (LC, PFOA 50): 1.1
Mean concentration relative to control, feature 126.0428@1.2278157 (Thymine) (LC, PFOA 50): 1.1
Mean concentration relative to control, feature 146.0362@0.7772238 (LC, PFOA 50): 1.1
Mean concentration relative to control, feature 159.0686@1.1608156 (LC, PFOA 50): 1
Mean concentration relative to control, feature 164.0449@0.7694838 (LC, PFOA 50): 1.1
Mean concentration relative to control, feature 202.1024@5.0303197 (C8H14N2O4) (LC, PFOA 50): 1.1
Mean concentration relative to control, feature 203.1162@0.5130696 (LC, PFOA 50): 1.1
Mean concentration relative to control, feature 213.2458@7.4887733 (LC, PFOA 50): 1
Mean concentration relative to control, feature 215.047@1.6260729 (C5H14NO6P) (LC, PFOA 50): 1.0
Mean concentration relative to control, feature 226.0721@1.9460537 (LC, PFOA 50): 1
Mean concentration relative to control, feature 231.0174@1.6241412 (LC, PFOA 50): 1
Mean concentration relative to control, feature 233.1265@2.535991 (LC, PFOA 50): 1.1
Mean concentration relative to control, feature 250.1317@2.1334834 (LC, PFOA 50): 1.1
Mean concentration relative to control, feature 260.0508@0.69984084 (LC, PFOA 50): 0.6**
Mean concentration relative to control, feature 276.0173@1.6283482 (LC, PFOA 50): 1
Mean concentration relative to control, feature 278.0939@1.3354088 (LC, PFOA 50): 1
Mean concentration relative to control, feature 293.0903@1.5739433 (LC, PFOA 50): 1
Mean concentration relative to control, feature 307.2147@7.5065937 (C18H29NO3) (LC, PFOA 50): 1.3**
Mean concentration relative to control, feature 310.178@7.5343466 (LC, PFOA 50): 1
Mean concentration relative to control, feature 339.3861@9.528681 (LC, PFOA 50): 1.4*
Mean concentration relative to control, feature 342.2883@7.526812 (LC, PFOA 50): 0.9**
Mean concentration relative to control, feature 348.0675@1.5761927 (LC, PFOA 50): 1
Mean concentration relative to control, feature 355.9454@0.68034226 (LC, PFOA 50): 1
Mean concentration relative to control, feature 362.1467@0.8461036 (LC, PFOA 50): 1.1
Mean concentration relative to control, feature 366.1431@1.4228548 (LC, PFOA 50): 1
Mean concentration relative to control, feature 373.296@9.044806 (LC, PFOA 50): 1
Mean concentration relative to control, feature 375.3108@8.995564 (LC, PFOA 50): 1
Mean concentration relative to control, feature 389.2686@9.046645 (LC, PFOA 50): 1
Mean concentration relative to control, feature 407.0999@1.585909 (LC, PFOA 50): 1
Mean concentration relative to control, feature 412.135@2.4779084 (C17H24N4O6S) (LC, PFOA 50): 1
Mean concentration relative to control, feature 444.3607@10.33052 (LC, PFOA 50): 0.9
Mean concentration relative to control, feature 471.9819@0.685074 (LC, PFOA 50): 1
Mean concentration relative to control, feature 489.1508@8.562614 (LC, PFOA 50): 0.8*
Mean concentration relative to control, feature 509.1184@2.4798179 (LC, PFOA 50): 1
Mean concentration relative to control, feature 525.2855@8.361063 (LC, PFOA 50): 1.1
Mean concentration relative to control, feature 545.2492@8.463657 (LC, PFOA 50): 1.1
Mean concentration relative to control, feature 558.4095@9.459733 (LC, PFOA 50): 1.2
Mean concentration relative to control, feature 565.1902@0.7699907 (LC, PFOA 50): 1.1
Mean concentration relative to control, feature 577.2747@9.25652 (LC, PFOA 50): 1
Mean concentration relative to control, feature 581.1643@0.77029324 (LC, PFOA 50): 1.1
Mean concentration relative to control, feature 634.2403@1.9467853 (LC, PFOA 50): 1
Mean concentration relative to control, feature 644.1614@0.7647065 (LC, PFOA 50): 1.1
